Tests used:
[1] = system: patients with heterozygous familial hypercholesterolemia (heFH); test: Study 6: randomized, placebo-controlled 12-week trial in heFH on statin with or without ezetimibe (interim analysis); format: in vivo, human; conditions: every two or four weeks
Procedure: A randomized, double-blind, multi-dose, placebo controlled, 75-patient trial in patients with heterozygous familial hypercholesterolemia (heFH). In this trial, patients must meet the World Health Organization criteria for heFH, be on a stable daly statin regimen for at least 6-weeks before entering the trial, and have serum LDL-C levels ≧100 mg/dL. Patients were permitted to be taking ezetimibe in addition to a daily statin. The primary endpoint of the study is the change in LDL cholesterol from baseline compared to placebo over the 12-week study period.
Patients treated with different doses of 316P achieved mean LDL-C reductions of approximately 30% to greater than 60% from baseline at 12-weeks compared to a 10% reduction with placebo (p<0.01), which was the primary endpoint of the study. The interim analysis was conducted when all patients completed the primary endpoint at 12-weeks.

[2] = system: patients with an elevated low-density lipoprotein cholesterol (LDL-C) (≧100 mg/dL or 2.59 mmol/L); test: Study 1: randomized, double-blind, placebo-controlled 12-week study of antibody 316P on stable atorvastatin; format: in vivo, human; conditions: for Cholesterol, Week 12 % change from baseline, Mean / Cholesterol, Week 12 % change from baseline, Median / Cholesterol, Week 12, Mean / Cholesterol, Week 12, Median / Cholesterol, Week 12 change from baseline, Mean / Cholesterol, Week 12 change from baseline, Median / LDL Cholesterol, Week 12—% change from baseline, Mean / LDL Cholesterol, Week 12—% change from baseline, Median / Non-HDL Cholesterol, Week 12 % change from baseline, Mean / Non-HDL Cholesterol, Week 12 % change from baseline, Median / LS mean difference vs. placebo in percent change from baseline in LDL-C at 12 weeks: on stable atorvastatin
Procedure: This was a multicenter, randomized, double-blind, parallel-group, placebo-controlled, 12-week study to assess the efficacy and safety of antibody 316P in patients with an elevated low-density lipoprotein cholesterol (LDL-C) (≧100 mg/dL or 2.59 mmol/L), when treated with atorvastatin (10 mg, 20 mg, or 40 mg) at a stable dose for at least 6 weeks. The randomization was stratified by the dose of atorvastatin received prior to randomization. After the double-blind period patients were followed during an 8-week follow-up period. The primary objective of the study was to evaluate the effect of antibody 316P on LDL-C levels after 12 weeks of treatment in comparison with placebo in patients with LDL-C (≧100 mg/dL or 2.59 mmol/L) on ongoing stable atorvastatin therapy.
The following doses/dose regimens were evaluated: 50 mg, 100 mg and 150 mg every 2 weeks (E2W), 200 mg and 300 mg every 4 weeks (E4W) in comparison with placebo.
Present study comprised a total of 122 patients (20 in placebo, 19 in 50 mg E2W group, 20 in 100 mg E2W group, 20 in 150 mg E2W group, 22 in 200 mg E4W group, and 21 in 300 mg E4W group).
Inclusion criteria: • Patients (patients receiving a lipid lowering treatment other than atorvastatin/or not at stable dose of atorvastatin 10 mg, 20 mg or 40 mg for at least 6 weeks prior to screening period or drug naïve patients) with primary hypercholesterolemia likely to have low-density lipoprotein cholesterol (LDL-C)≧100 mg/dL (≧2.59 mmol/L) at the end of the run-in period on atorvastatin therapy (Week-1). • OR • Patients with primary hypercholesterolemia treated with atorvastatin at stable dose of 10 mg, 20 mg, or 40 mg for at least 6 weeks prior to screening period and likely to have LDL-C≧100 mg/dL (≧2.59 mmol/L) at the screening visit Week-1. […]

[3] = 12 weeks, all doses/dose regimens

Substance: 316P: fully human anti-PCSK9 antibody comprising a HCVR as shown in SEQ ID NO: 90 and LCVR as shown in SEQ ID NO: 92 [Antibody 316P]
- mean LDL-C reductions at 12-weeks compared to placebo [1]: significantly greater mean LDL-C reductions
- Cholesterol, Week 12 % change from baseline, Mean ([2]; 50 mg E2W): −24.21%
- Cholesterol, Week 12 % change from baseline, Median ([2]; 50 mg E2W): −23.34%
- Cholesterol, Week 12, Mean ([2]; 50 mg E2W): 3.974 mmol/L
- Cholesterol, Week 12, Median ([2]; 50 mg E2W): 3.937 mmol/L
- Cholesterol, Week 12 change from baseline, Mean ([2]; 50 mg E2W): -1.313 mmol/L
- Cholesterol, Week 12 change from baseline, Median ([2]; 50 mg E2W): -1.399 mmol/L
- LDL Cholesterol, Week 12—% change from baseline, Mean ([2]; 50 mg E2W): −41.06%
- LDL Cholesterol, Week 12—% change from baseline, Median ([2]; 50 mg E2W): −37.04%
- Non-HDL Cholesterol, Week 12 % change from baseline, Mean ([2]; 50 mg E2W): −35.23%
- Non-HDL Cholesterol, Week 12 % change from baseline, Median ([2]; 50 mg E2W): −36.62%
- maintenance of LDL-C decrease observed after the first injection ([2]; 100 mg E2W and 150 mg E2W groups, also throughout the interval period between the injections): maintained throughout the study
- Cholesterol, Week 12 % change from baseline, Mean ([2]; 100 mg E2W): −38.97%
- Cholesterol, Week 12 % change from baseline, Median ([2]; 100 mg E2W): −40.21%
- Cholesterol, Week 12, Mean ([2]; 100 mg E2W): 3.288 mmol/L
- Cholesterol, Week 12, Median ([2]; 100 mg E2W): 3.238 mmol/L
- Cholesterol, Week 12 change from baseline, Mean ([2]; 100 mg E2W): -2.098 mmol/L
- Cholesterol, Week 12 change from baseline, Median ([2]; 100 mg E2W): -2.163 mmol/L
- LDL Cholesterol, Week 12—% change from baseline, Mean ([2]; 100 mg E2W): −63.90%
- LDL Cholesterol, Week 12—% change from baseline, Median ([2]; 100 mg E2W): −64.28%
- LS mean difference vs. placebo in percent change from baseline in LDL-C at 12 weeks ([2]; 100 mg E2W): −58.36%
- Non-HDL Cholesterol, Week 12 % change from baseline, Mean ([2]; 100 mg E2W): −54.78%
- Non-HDL Cholesterol, Week 12 % change from baseline, Median ([2]; 100 mg E2W): −55.91%
- number of patients with LDL-C reduction from baseline >50% at week 12 ([2]; 150 mg E2W group, among 18 patients): 17
- Cholesterol, Week 12 % change from baseline, Mean ([2]; 150 mg E2W): −45.21%
- Cholesterol, Week 12 % change from baseline, Median ([2]; 150 mg E2W): −45.03%
- Cholesterol, Week 12, Mean ([2]; 150 mg E2W): 2.922 mmol/L
- Cholesterol, Week 12, Median ([2]; 150 mg E2W): 2.823 mmol/L
- Cholesterol, Week 12 change from baseline, Mean ([2]; 150 mg E2W): -2.466 mmol/L
- Cholesterol, Week 12 change from baseline, Median ([2]; 150 mg E2W): -2.331 mmol/L
- LDL Cholesterol, Week 12—% change from baseline, Mean ([2]; 150 mg E2W): −72.68%
- LDL Cholesterol, Week 12—% change from baseline, Median ([2]; 150 mg E2W): −74.83%
- LS mean difference vs. placebo in percent change from baseline in LDL-C at 12 weeks ([2]; 150 mg E2W): −68.78%
- Non-HDL Cholesterol, Week 12 % change from baseline, Mean ([2]; 150 mg E2W): −63.71%
- Non-HDL Cholesterol, Week 12 % change from baseline, Median ([2]; 150 mg E2W): −65.94%
- Cholesterol, Week 12 % change from baseline, Mean ([2]; 200 mg E4W): −29.54%
- Cholesterol, Week 12 % change from baseline, Median ([2]; 200 mg E4W): −29.51%
- Cholesterol, Week 12, Mean ([2]; 200 mg E4W): 3.709 mmol/L
- Cholesterol, Week 12, Median ([2]; 200 mg E4W): 3.587 mmol/L
- Cholesterol, Week 12 change from baseline, Mean ([2]; 200 mg E4W): -1.596 mmol/L
- Cholesterol, Week 12 change from baseline, Median ([2]; 200 mg E4W): -1.716 mmol/L
- LDL Cholesterol, Week 12—% change from baseline, Mean ([2]; 200 mg E4W): −47.23%
- LDL Cholesterol, Week 12—% change from baseline, Median ([2]; 200 mg E4W): −49.46%
- LS mean difference vs. placebo in percent change from baseline in LDL-C at 12 weeks ([2]; 200 mg E4W): −42.53%
- Non-HDL Cholesterol, Week 12 % change from baseline, Mean ([2]; 200 mg E4W): −40.07%
- Non-HDL Cholesterol, Week 12 % change from baseline, Median ([2]; 200 mg E4W): −39.91%
- decrease in LDL-C during the interval periods ([2]; 200 mg and 300 mg E4W groups): at least −40%
- Cholesterol, Week 12 % change from baseline, Mean ([2]; 300 mg E4W): −29.61%
- Cholesterol, Week 12 % change from baseline, Median ([2]; 300 mg E4W): −33.48%
- Cholesterol, Week 12, Mean ([2]; 300 mg E4W): 3.778 mmol/L
- Cholesterol, Week 12, Median ([2]; 300 mg E4W): 3.393 mmol/L
- Cholesterol, Week 12 change from baseline, Mean ([2]; 300 mg E4W): -1.638 mmol/L
- Cholesterol, Week 12 change from baseline, Median ([2]; 300 mg E4W): -2.020 mmol/L
- LDL Cholesterol, Week 12—% change from baseline, Median ([2]; 300 mg E4W): −51.98%
- LS mean difference vs. placebo in percent change from baseline in LDL-C at 12 weeks ([2]; 300 mg E4W): −42.26%
- Non-HDL Cholesterol, Week 12 % change from baseline, Mean ([2]; 300 mg E4W): −41.17%
- Non-HDL Cholesterol, Week 12 % change from baseline, Median ([2]; 300 mg E4W): −45.55%
- tolerability ([2]; 12 weeks of treatment, all tested doses/dose regimens): well tolerated
- ApoB [2, 3]: decrease
- Total-C [2, 3]: decrease
- non HDL-C [2, 3]: decrease
- HDL-C ([2]; 12 weeks, all groups): trend of increase
- percent change from baseline in LDL-C at 12 weeks compared to the placebo group ([2]; all groups): Statistically significant decreases
- troponin levels ([2]; all treatment groups): no change
- LDL-C mean values over 12 weeks and LOCF (FIG. 6, words) ([2]; all treatment groups except placebo, whole study period): significant and persistent reduction of LDL-C levels
